55 compounds from the SangsterLogP compilation can be followed below.

Square brackets hold non-standard residues; d marks the D form. Peptide text beside a SMILES is read from it. NMeF = CN[CH](Cc1ccccc1)C(=O)O

Data set [1] can be described thus: method code SF-RC, from DOI: 10.1016/j.nucmedbio.2007.12.005, PMID: 18355688. The settings on record: pH 7.4.
Data set [2] can be described thus: from Ganellin, C.; Brown, T.; Griffiths, R.; Jones, M.; Mitchell, C.; Rana, K.; Saunders, D.; Smith, I.; Sore, E.; Wilks, J.; Young, R. (1991). Use of partition coefficients as a model for brain ….
Data set [3] is described as follows: method code SF-HPLC, from DOI: 10.2174/1871523013666141114203105, PMID: 25403255. The settings on record: pH 7.4.
Data set [4] can be described thus: method code SF-HPLC, from DOI: 10.1002/jccs.199500138.
Assay in data set [5]: not given
This is another data set of the same source.

Data set [6] can be described thus: method code SF-AS, from DOI: 10.3109/03639048709068705.
A short description of data set [7]: method code SF-HPLC, from DOI: 10.1016/0378-5173(91)90200-8. The settings on record: pH 7.4.
Assay in data set [8]: not given
The source holds these as a separate data set.

A short description of data set [9]: method code SF-RC, from DOI: 10.1016/j.nucmedbio.2014.05.001, PMID: 24969632. Particulars: pH 7.4.
Data set [10] can be described thus: method code SF, from PMID: 26783178.
The nature of data set [11]: method code SF-AS, from DOI: 10.1248/bpb1978.4.759, PMID: 7320829.
Data set [12] in a line: method code SF-HPLC, from DOI: 10.1002/jlac.1995199512306.
Assay in data set [13]: not given
The source holds these as a separate data set.

A short description of data set [14]: method code SF-AS, from DOI: 10.1016/s0020-1693(00)85781-3.
A short description of data set [15]: method code SF-RC, from DOI: 10.1023/a:1015867608405, PMID: 1614980. The settings on record: pH 7.4.
Assay in data set [16]: not given
The source holds these as a separate data set.

Assay in data set [17]: not given
This is another data set of the same source.

Assay in data set [18]: not given
This is another data set of the same source.

Broadly, the logP is a log measure of how a compound divides between an organic and an aqueous phase. The low end stands for a more hydrophilic compound, the high end for a more lipophilic compound. On to `COc1ccc(C(=O)C2c3cccc(O)c3C(=O)c3c(O)cccc32)cc1OC`, for which the logP worked out at 3.45.

A word on the logD: it is the decadic logarithm of the distribution of all forms, ionised or not, between an organic phase and buffer at a given pH. Lower therefore signals lower lipophilicity. For the compound `CN(C(=O)Cc1c(-c2ccc(Cl)cc2)nc2c(Cl)cc(Cl)cn12)c1ccccc1`, the logD in [1] is 2.2.

The compound `CN(C)Cc1ccc(CSCCNc2nc(=O)c(Cc3ccc4ccccc4c3)c[nH]2)o1` yielded a logP in data set [2] of 4.57.

Compound `COc1ccccc1OC(=O)COC(=O)Cc1ccccc1Nc1c(Cl)cccc1Cl` returned a logD in data set [3] of 4.6.

The compound `CC(=CCCC(C)C1CC(O)C2(C)C3=CCC4C(C)(CCC(O)C4(C)C)C3=CCC12C)C(=O)O` (stereo not given) showed a logP in data set [4] of 2.69.

With `O=C1C(CCS(=O)(=O)c2ccccc2)C(=O)N(c2ccccc2)N1c1ccccc1`, the logP in data set [5] turned out to be 3.51.

The compound `CCCCCCCC(=O)OC(CNC(C)C)COc1cccc2ccccc12` (stereo not given) came in with a logP in [6] of 7.87.

`CCC(C(=O)OCc1ccc(COC(=O)C(CC)C(COC(C)=O)Cc2cncn2C)cc1)C(COC(C)=O)Cc1cncn1C` (stereo not given) gave a pH-dependent lipophilicity (logD) in data set [7] of 3.04.

Take `CC1=C(CC(=O)O)c2cc(F)ccc2/C1=C/c1ccc(S(C)(=O)=O)cc1`: the logP in data set [5] was 3.29.

In [8], `C=C1CC[C@H](O)C/C1=C/C=C1\CCC[C@]2(C)[C@@H]([C@H](C)CCCC(C)C)CC[C@@H]12` came in with a logP of 10.2.

Compound `CCC(C(=O)OCc1ccc(COC(=O)C(CC)C(COC(=O)CC(=O)OC)Cc2cncn2C)cc1)C(COC(=O)CC(=O)OC)Cc1cncn1C` (stereo not given) came in with a logD in data set [7] of 2.76.

Consider `O=C(N1CCN(C(c2ccccc2)c2ccccc2)CC1)n1nnc2ccccc21`, for which the logD in data set [9] worked out at 3.61.

On to `CCc1ccc(S(=O)(=O)NCCCC2C(=O)N(c3ccc(C)cc3)C2c2ccc(NS(C)(=O)=O)cc2)cc1` (stereo not given), for which the logP in [10] was 3.62.

The compound `O=C1NC(=O)C(c2ccccc2)(c2ccccc2)N1S(=O)(=O)c1ccc([N+](=O)[O-])cc1` displayed a logP in data set [11] of 4.04.

In the case of `CC(=O)O[C@@H]1C[C@@H]([C@@H](C)CC/C=C(\C)C(=O)O)[C@]2(C)CC=C3C(=CCC4C(C)(C)[C@H](O)CC[C@@]34C)[C@@]12C` (stereo not given in full), the lipophilicity (logP) in [4] came to 2.71.

In [4], `CC(=O)OC1CCC2(C)C3=CCC4(C)C(C(C)CCC=C(C)C(=O)O)CC(O)C4(C)C3=CCC2C1(C)C` (stereo not given) registered a logP of 2.72.

In turn, `c1cc(CN2CCCCC2)cc(OCCCNc2nc3ccccc3s2)c1` showed a logP in data set [2] of 5.41.

`Cc1cn(C2CC(N=[N+]=[N-])C(COP(=O)(OCc3ccccc3)OCC3OC(n4cc(C)c(=O)[nH]c4=O)CC3N=[N+]=[N-])O2)c(=O)[nH]c1=O` (stereo not given) had a logP in data set [12] of 1.34.

`CCCCCCCCc1ccc(OCC(=O)Cn2cc(C(=O)OC)c3cc(C(=O)O)ccc32)cc1` had a logP in data set [13] of 6.2.

The compound `c1ccc2c(c1)COCCOCCOCc1ccccc1COCCOC2` displayed a logP in data set [14] of 2.21.

In data set [2], `COc1cccnc1CCCCNc1nc(=O)c(Cc2ccc(C)nc2)c[nH]1` showed a logP of 2.58.

As for `CC(C)(C)c1ccc2c(c1)COCCOCCOCCOCCOCCOC2`, in data set [14], the logP worked out at 1.71.

`Cc1cn(C2CC(N=[N+]=[N-])C(COP(=O)(OCc3cccc([N+](=O)[O-])c3)OCC3OC(n4cc(C)c(=O)[nH]c4=O)CC3N=[N+]=[N-])O2)c(=O)[nH]c1=O` (stereo not given) showed a lipophilicity (logP) in data set [12] of 0.99.

In turn, `CNC(=O)C(Cc1ccccc1)N(C)C(=O)C(Cc1ccccc1)N(C)C(=O)C(Cc1ccccc1)N(C)C(C)=O` (stereo not given) (Ac-[NMeF]-[NMeF]-[NMeF]-NHMe; configuration not given here) displayed a logD in data set [15] of 3.24.

Regarding `CCCCN(C)C(=O)Cc1c(-c2ccccc2)nc2c(Cl)cc(Cl)cn12`, the logD in data set [1] was determined as 2.14.

In data set [8], `CC(C)CCC[C@@H](C)[C@H]1CC[C@H]2C3=CC=C4C[C@@H](O)CC[C@]4(C)[C@H]3CC[C@]12C` showed a logP of 8.65.

With `CCCCCCCCc1ccc(OCC(=O)Cn2ccc3cc(C(=O)O)ccc32)cc1`, the lipophilicity (logP) in data set [13] came out at 6.3.

`CCCCCCCCCCCCCCCc1cc(O)cc(O)c1` had a logP in [16] of 7.4.

Consider `CC1=C(C/C=C(\C)CCC[C@H](C)CCC[C@H](C)CCCC(C)C)C(=O)c2ccccc2C1=O`, for which, in [8], the logP was determined as 11.7.

In the case of `CCCCN(C)C(=O)Cc1c(-c2ccc(Cl)cc2)nc2c(Cl)cc(Cl)cn12`, the logD in data set [1] is 2.2.

Consider `Nc1ccc(S(=O)(=O)N2C(=O)NC(=O)C2(c2ccccc2)c2ccccc2)cc1`, for which the lipophilicity (logP) in data set [11] was found to be 3.27.

For `CCCOc1ccc(C(=O)C2c3cccc(O)c3C(=O)c3c(O)cccc32)cc1`, the log partition coefficient (logP) turned out to be 3.44.

`CC[C@H]1OC(=O)[C@H](C)[C@@H](O[C@H]2C[C@@](C)(OC)[C@@H](O)[C@H](C)O2)[C@H](C)[C@@H](O[C@@H]2O[C@H](C)C[C@H](N(C)C)[C@H]2O)[C@](C)(O)C[C@@H](C)C(=O)[C@H](C)[C@@H](O)[C@]1(C)O` yielded a logP in [17] of 3.06.

For `CCCCC(=O)OC(CNC(C)C)COc1cccc2ccccc12` (stereo not given), in [6], the log partition coefficient (logP) was determined as 6.3.

For `COc1ccc(C(=O)C2c3cccc(O)c3C(=O)c3c(O)cccc32)cc1`, the logP worked out at 3.74.

Regarding `O=C(N1CCC(C(c2ccc3c(c2)OCO3)c2ccc3c(c2)OCO3)CC1)n1cncn1`, the log distribution coefficient (logD) in data set [9] stood at 3.32.

In data set [17], `CO[C@@H]1[C@@H](O[C@@H]2O[C@H](C)[C@@H](O)[C@H](N(C)C)[C@H]2O)[C@@H](CC=O)C[C@@H](C)C(=O)/C=C\[C@H]2O[C@H]2C[C@@H](C)OC(=O)C[C@H]1OC(C)=O` displayed a logP of 0.3.

As to `Cc1ccc(N2C(=O)[C@H](CCCNS(=O)(=O)c3ccc(OC(F)(F)F)cc3)[C@H]2c2ccc([N+](=O)[O-])cc2)cc1`, the logP in data set [10] worked out at 4.55.

Take `Cc1cn(C2CC(N=[N+]=[N-])C(COP(=O)(OCc3ccc(C#N)cc3)OCC3OC(n4cc(C)c(=O)[nH]c4=O)CC3N=[N+]=[N-])O2)c(=O)[nH]c1=O` (stereo not given): the logP in [12] turned out to be 0.91.

`COc1cc(C=O)ccc1OC(=O)COC(=O)Cc1ccccc1Nc1c(Cl)cccc1Cl` had a logD in data set [3] of 4.86.

The compound `COc1cc(C=Cc2ccccn2)ccc1C=Cc1ccccn1` yielded a logP in data set [18] of 4.25.

Consider `CCCC(=O)OC(CNC(C)C)COc1cccc2ccccc12` (stereo not given), for which the logP in data set [6] was 5.56.

Regarding `O=C1[C@H](CC[C@H](O)c2ccc(F)cc2)[C@@H](c2ccc(O)cc2)N1c1ccc(F)cc1`, the logP in data set [10] turned out to be 3.64.

In turn, `CCCCCCCCc1ccc(OCC(=O)Cn2cc(C(=O)C(C)C)c3cc(C(=O)O)ccc32)cc1` returned a log partition coefficient (logP) in data set [13] of 6.6.

For `O=C(OC(C(F)(F)F)C(F)(F)F)N1CCN(Cc2cccc(Oc3ccccc3)c2)CC1`, the logD in data set [9] turned out to be 5.

Regarding `CCCCCCCCCCCCCCCCCCCc1cc(O)cc(O)c1`, the logP in [16] was determined as 10.9.

In data set [7], `CCOC(=O)CC(Cc1cncn1C)C(CC)C(=O)OCc1ccc(COC(=O)C(CC)C(CC(=O)OCC)Cc2cncn2C)cc1` (stereo not given) yielded a logD of 4.08.

`C=CCc1ccc(OC(=O)COC(=O)Cc2ccccc2Nc2c(Cl)cccc2Cl)c(OC)c1` displayed a logD in data set [3] of 5.13.

`CC(=O)NC(Cc1ccccc1)C(=O)NC(Cc1ccccc1)C(=O)N(C)C(Cc1ccccc1)C(N)=O` (stereo not drawn) (Ac-Phe-Phe-[NMeF]-NH2; configuration not given here): the logD in data set [15] was 2.63.

In data set [11] (pH 7.0), `O=C1NC(=O)C(c2ccccc2)(c2ccccc2)N1S(=O)(=O)c1ccc(O)cc1` yielded a logD of 1.62.

With `CCc1ccc2c(c1)COCCOCCOCCOCCOCCOC2`, the logP in data set [14] came out at 0.98.

`CC(=O)N(C)C(Cc1ccccc1)C(=O)N(C)C(Cc1ccccc1)C(=O)N(C)C(Cc1ccccc1)C(N)=O` (stereo not given) (Ac-[NMeF]-[NMeF]-[NMeF]-NH2; configuration not given here): the logD in data set [15] is 2.92.

For `CCCCCCCCCCCCCCCCCc1cc(O)cc(O)c1`, the log partition coefficient (logP) in data set [16] amounted to 9.2.

With `CC[C@H]1OC(=O)C[C@@H](O)[C@H](C)[C@@H](O[C@@H]2O[C@H](C)C[C@H](N(C)C)[C@H]2O)[C@@H](CC=O)C[C@@H](C)C(=O)/C=C/[C@]2(C)O[C@H]2[C@@H]1C`, the logP in [17] was 2.19.

In data set [5], `O=C1C(CCS(=O)c2ccccc2)C(=O)N(c2ccccc2)N1c1ccccc1` (stereo not given) came in with a logP of 3.56.
